One assay relates to hepatitis B virus (HBV). Kind of assay: HBV DNA from virions secreted into medium of 2.2.15 cells (Southern blot, densitometry). It counts as cell-based, HBV in human hepatoma HepG 2.2.15 cells. Conditions: six days. As to the method: HepG 2.2.15 cells were grown for 6 days in the presence of the indicated concentration of NBDNJ with one change of medium. After the sixth day (seventh day in culture), cells and medium were collected. Autoradiograms of the viral DNA detected by hybridization of membranes to HBV probes are shown.
FIG. 2A: autoradiogram of a Southern blot of DNA recovered from the medium of 2.2.15 cells maintained in medium without NBDNJ (lanes 1 and 2); and in the following NBDNJ concentrations: 200 μg/ml (lane 3); 500 μg/ml (lane 4); and 1000 μg/ml (lane 5).
HepG2 cells were purchased from the European Collection of Animal Cell Cultures (Porton Down, UK). HepG2 2.15 [2.2.15, Sells and Chen, Proc. Natl. Acad. Sci. USA 84, 1005-1009 (1987)] cells were obtained from Dr. George Acs (Mt. Sinai Medical College, New York, USA).
All tissue cultures were maintained in 5% C02 in RPMI 1640 (GIBCO) medium, supplemented with 10% heat inactivated fetal calf serum (Techgen, London, U.K.), 50 units/ml. of penicillin and streptomycin, 1 mM glutamine (GIBCO). For 2.2.15 cells, 200 μgs/ml. Antibiotic G418 (Genticin, GIBCO) was added to the medium, as in Sells and Chen, Proc. Natl. Acad. Sci. USA 84, 1005-1009 (1987).
Medium from approximately 5×10^6 cells was precipitated with polyethylene glycol (PEG) 8000 (Sigma), after clarification, as in Sells and Chen, Proc. Natl. Acad. Sci. USA 84, 1005-1009 (1987), re-suspended in 0.5 ml. phosphate buffered saline (PBS) and sedimented through a cushion of 20% sucrose in PBS for 5 hours at 50,000 rpm in a Beckman T100.3 rotor (approx. 75,000×g).
DNA was prepared from the pellets as in Sells and Chen, Proc. Natl. Acad. Sci. USA 84, 1005-1009 (1987). […]

The subject of the next assay is SHBs (S) antigen. Kind of assay: ELISA of SHBs (S) antigen in unfractionated culture medium of 2.2.15 cells. The assay is classed as cell-based, HBV. How it is done: (§1) FIG. 3D: Histogram of the area under the averaged peaks of the densitometric tracing of the gel in FIG. 3B. […] Equal volumes of the indicated samples were tested for HBV envelope antigens using the enzyme-linked imminosorbent assay (ELISA) method. Samples of unfractionated medium (FIGS. 4A, 4B and 4C) or partially purified virus (FIGS. 4D, 4E and 4F) from 3-day cultures were tested for HBV SHBs ("S) (FIGS. 4A and 4D), LHBs: "PreS1" (FIGS. 4B and 4E) or MHBs "PreS2" (FIGS. 4C and 4F) epitopes. Cultures were maintained in the indicated concentrations of NBDNJ, expressed in millimolar units and shown along the X axis.
(§2) Detection of HBV proteins by the Enzyme Linked Immunoabsorbant assay (ELISA).
Monoclonal antibodies used herein are well-known and are described by Heerman et al., J. Virol. […]
(§3) Bound antigen was detected by incubation with peroxidase conjugated goat anti-HBs antibody (Behring) followed by development in orthophenylenediamine (0.33 mg/ml PBS-peroxide solution). Optical densities were read in a Behring plate reader. Tests on purified virus and total medium were conducted over a series of sample dilutions to insure proper quantification.
(§4) To distinguish between these possibilities, the amount and nature of envelope antigens in the culture medium was determined by both ELISA and Western analysis. […]
(In general: In an ELISA, binding on a coated surface is turned into a signal by an enzyme label.)

The next assay relates to MHBs (PreS2) antigen. Kind of assay: ELISA of MHBs (PreS2) antigen in unfractionated culture medium of 2.2.15 cells. The assay is classed as cell-based, HBV. How it is done:
as §1, §2
Monoclonal antibodies used herein are well-known and are described by Heerman et al., J. Virol. 52, 396-402 (1984), for antibody to PreS1 (MA 18/7); Heerman et al., Intervirology 28: 14-21 (1987), for antibody to PreS2 (Q 19/10), see also Gerlich and Bruss, Molecular Biology of Hepatitis B Virus, ed. A. McLachlan, CRC Press, 109-144 (1992), and in Hepatitis B Vaccines in Clinical Practice, ed. R. W. Ellis, Marcel Dekker, Inc., pp. 41-82 (1992); and Heerman et al., in Viral Hepatitis and Liver Disease, ed. Zuckermann, A. R. Liss, 697-701 (1988), for antibody to S (C20-2).].
Samples were incubated in microtiter wells coated (overnight at 4° C.) with monoclonal antibodies specific for the LHBs, MHBs or SHBs epitopes and blocked with 1% BSA in PBS. After incubation with virus samples in for 1 hour (37° C.), plates were washed 4 times with PBS/0.1% Tween 20 non-ionic detergent.
as §3, §4

These results are taken from US6037351A, “Method of inhibiting hepatitis B virus” (priority 1996, dated 2000).

In the case of `CCCCN1C[C@H](O)[C@@H](O)[C@H](O)[C@H]1CO` [NBDNJ, N-butyl-1,5-dideoxy-1,5-imino-D-glucitol], the inhibition at 500 µg/mL with hepatitis B virus (HBV) (Hepatitis B virus, 144 h, NBDNJ 500 μg/ml (2.28 mM), densitometry of FIG. 2A, read-out: decrease in virus specific DNA in medium) is 90%. For the same compound, the inhibition at 1000 µg/mL in the assay on hepatitis B virus (HBV) (Hepatitis B virus, 144 h, NBDNJ 1000 μg/ml, densitometry of FIG. 2A, read-out: decrease in virus specific DNA in medium) worked out at 99%. In the assay with hepatitis B virus (HBV) (NBDNJ 200, 500, 1000 μg/ml), the “virus specific DNA obtained from the media of treated cells (in words)” value is given as “clear dose-dependent decrease”. The “effect upon total amount of SHBs (S) antigen in medium” value in the assay with SHBs (S) antigen is recorded as “no significant effect”. Further, in the assay with MHBs (PreS2) antigen (1000 μg/ml NBDNJ, 2.2.15 cells), the “decrease in the amount of MHBs antigen in medium (in words)” value was “two-fold decrease”. For the same compound, in the assay with MHBs (PreS2) antigen (highest NBDNJ concentration, 4.5 mM or approximately 1000 μg/ml), the “decrease in total amount of MHBs (PreS2) antigen in medium” value is given as “approximately 2.5 fold”. Besides, the “total amount of MHBs (PreS2) antigen in medium (in words)” value with MHBs (PreS2) antigen (unfractionated medium, 2.2.15 cells) is reported as “modest, dose-dependentdecrease”.
